Seven molecules from patent publication US8933234B2, “O-amino benzonitrile compounds, method for preparing same and uses thereof” (Hangzhou Udragon Chemical Co., Ltd., priority 2011, dated 2015) can be followed below.

One data set concerns Diamondback moth. As to the kind of experiment: Insecticidal effect on diamondback moth (cabbage leaf disc dip test). In kind it is in vivo. The conditions noted are these: for Insecticidal Effect (%) Diamondback moth (1 mg/L): leaf disc immersed 10 seconds, larvae, mortality; for mortality at 1 µg/mL: Plutella xylostella, foliar, 72 h, concentration of 1 mg/L, 3 days. The protocol:
(§1) The compound to be tested dissolved in acetone and 1‰ Tween-80 solution, and was formulated to 50 ml of the test solution with desired concentration. The cabbage leaves having been cleaned and dried were made into leaf disc with diameter of 1 cm with hole puncher. The leaf disc were immersed in the drug liquid for 10 seconds and then removed, dried naturally, loaded in the culture dish. 10 […] diamondback moth larvae were introduced per dish and repeated for three times. After the treatment, the dishes were placed into a room with temperature of 20° C., relative humidity of 60-70% and without illumination to take an indoor culture. The survival of insects was surveyed and the mortality was calculated.

The test system of another data set is pink stem borer. Nature of the data set: Insecticidal effect on pink stem borer (method of Test Example 1). It counts as in vivo. Conditions: for Insecticidal Effect (%) pink stem borer (2 mg/L): leaf disc immersed 10 seconds, mortality. The protocol:
[The procedure below names another organism; the source lists this organism under the same test.] as §1

For orientation: mortality means the percentage killed. Higher therefore signals fewer survivors.

In the case of `N#Cc1cc(Cl)cc(Cl)c1NC(=O)c1cc(Br)nn1-c1ncc(Cl)cc1Cl` [Compound I-5], in the data set with Diamondback moth, the “Insecticidal Effect (%) Diamondback moth (1 mg/L)” value was 100% and the mortality at 1 µg/mL came out at 100%. The “Insecticidal Effect (%) pink stem borer (2 mg/L)” value with pink stem borer is reported as 70%.
Consider `N#Cc1cc(Cl)cc(Cl)c1NC(=O)c1cc(Br)nn1-c1ncccc1Cl` [Compound I-4], for which, in the data set on Diamondback moth, the “Insecticidal Effect (%) Diamondback moth (1 mg/L)” value came to 100% and the mortality at 1 µg/mL worked out at 100%. Moreover, in the data set on pink stem borer, the “Insecticidal Effect (%) pink stem borer (2 mg/L)” value came to 98%. For the same molecule, in the data set on pink stem borer (concentration of 2 mg/L, 3 days), the “mortality to pink stem borer in 3 days” value turned out to be 98%.
Turning to `N#Cc1cc(Cl)cc(Cl)c1NC(=O)c1cc(Br)nn1-c1ncc(Cl)cc1F` [Compound I-6], in the data set with Diamondback moth, the “Insecticidal Effect (%) Diamondback moth (1 mg/L)” value is reported as 100% and the mortality at 1 µg/mL was 100%. Also, the “Insecticidal Effect (%) pink stem borer (2 mg/L)” value in the data set on pink stem borer was 90%.
Take `Cc1cc(Cl)cc(C#N)c1NC(=O)c1cc(Br)nn1-c1ncc(C(F)(F)F)cc1Cl` [Compound I-7]: the “Insecticidal Effect (%) Diamondback moth (1 mg/L)” value with Diamondback moth is recorded as 90%. Also, the “Insecticidal Effect (%) pink stem borer (2 mg/L)” value with pink stem borer was 80%.
The like results for `Cc1cc(Cl)cc(C#N)c1NC(=O)c1cc(Br)nn1-c1ncccc1Cl` [Compound I-1] were, in that order, 50% and 40%.
Turning to `Cc1cc(Cl)cc(C#N)c1NC(=O)c1cc(Br)nn1-c1ncc(Cl)cc1Cl` [Compound I-2], in the data set with Diamondback moth, the “Insecticidal Effect (%) Diamondback moth (1 mg/L)” value worked out at 80%. Also, the “Insecticidal Effect (%) pink stem borer (2 mg/L)” value in the data set on pink stem borer was 50%.
For the molecule `Cc1cc(Cl)cc(C#N)c1NC(=O)c1cc(Br)nn1-c1ncc(Cl)cc1F` [Compound I-3], in the data set with Diamondback moth, the “Insecticidal Effect (%) Diamondback moth (1 mg/L)” value was determined as 100% and the mortality at 1 µg/mL was determined as 100%. For the same molecule, in the data set on pink stem borer, the “Insecticidal Effect (%) pink stem borer (2 mg/L)” value is 85%.
